According to patent US20190185479A1, “BICYCLIC NITROGENATED HETEROCYCLIC COMPOUND” (MITSUBISHI TANABE PHARMA CORPORATION, priority 2016, published 2019):

Tests used:
Format in all cases: biochemical
Human PDE7B (hPDE7B) = molecular target: T1, Human PDE7B (hPDE7B) (Homo sapiens, UniProt Q9NP56); test: Measurement of PDE7 inhibitory activity (Experimental Example 1; residual cAMP, LANCE Ultra cAMP TR-FRET); settings: cAMP 3 nmol/L, room temperature 60 minutes
T1 construct: made in house; host or cells: COS-7 cells
Procedure, shortened: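 hPDE7B from transfected COS-7 cells reacted with 3 nmol/L cAMP (final) and compound (2% DMSO) in 50 mmol/L Tris-HCl pH 7.5, 1 mmol/L MgCl2, 0.1% BSA, 0.5 mmol/L DTT, 60 min at room temperature. Reaction stopped with IBMX; residual cAMP measured by TR-FRET. Inhibition scaled between no-compound and no-enzyme controls.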

hPDE8B = molecular target: T2, hPDE8B (Homo sapiens, UniProt O95263); test: PDE8 inhibition assay (IC50), Experimental Example 3; settings: for IC50: hPDE8B, read-out: PDE inhibition assay IC50, PDE8; for inhibition rate (%) at prescribed concentration, PDE8 / inhibition at 1 µM: at 1 μmol/L; for inhibition at 1 µM: read-out: inhibition rate (%) at prescribed concentration, PDE8
T2 construct: purchased SB Drug Discovery
Method: (§1) PDE7 inhibitory assay was carried out by reacting the mixture of a compound, hPDE7B, and cAMP, and measuring the residual cAMP by a detection method using LANCE (registered trademark) Ultra cAMP Detection Kit (ParkinElmer). The compound was dissolved in DMSO, and diluted so that the concentration would become 50 times of the final concentration. The hPDE7B and cAMP were diluted with an assay buffer (50 mmol/L Tris-HCl, 1 mmol/L MgCl2, 0.1% BSA, 0.5 mmol/L DTT, pH7.5) so that the hPDE7B would have an appropriate enzyme activity and the concentration of cAMP would become 6 nmol/L. To a 96 well plate were added the compound (2 μL) (DMSO final concentration: 2%), hPDE7B (48 μL), and cAMP (50 μL) (concentration at the reaction: 3 nmol/L), and the resulting mixture was reacted at room temperature for 60 minutes. The reaction solution (20 μL) was subjected to a TR-FRET method according to the protocol specified by the kit to measure the concentration of the residual cAMP. In the assay, to a tracer solution specified by the kit was added 0.5 mmol/L of 3-isobutyl-1-methylxanthine (IBMX, nonselective PDE inhibitor) in order to stop the PDE enzyme reaction after the completion of reaction until the measurement.
(§2) The prediction of PDE7 selectivity was evaluated by comparing each IC50 value of a compound against PDE4, 8, and 10 with the IC50 value of said compound against PDE7B.
(§3) hPDE4D, hPDE8B, and hPDE10A were prepared by the same method as [Method for preparing samples 2].
(§4) PDE4, 8, and 10 inhibitory assays were carried out by the same method as [Assay procedure 1].
(§5) The reaction without a compound wad defined as “0% inhibition”, the reaction without each PDE was defined as “100% inhibition”, and the calculation of IC50 value was carried out by the same method as <Method for data calculation 1>.

hPDE4D = molecular target: T3, hPDE4D (Homo sapiens, UniProt Q08499); test: PDE4 inhibition assay (IC50), Experimental Example 3; settings: for IC50: hPDE4D, read-out: PDE inhibition assay IC50, PDE4; for inhibition at 10 µM: at 10 μmol/L
T3 construct: purchased SB Drug Discovery
Method: as §1, §2, §3, §4, §5

hPDE10A = hPDE10A (Homo sapiens, UniProt Q9Y233); test: PDE10 inhibition assay (IC50), Experimental Example 3; settings: for inhibition at 100 µM: at 100 μmol/L; for inhibition at 100 µM / inhibition at 10 µM: read-out: inhibition rate (%) at prescribed concentration, PDE10; for IC50: hPDE10A, read-out: PDE inhibition assay IC50, PDE10; for inhibition at 10 µM: at 10 μmol/L
Method: as §1, §2, §3, §4, §5

[1] = read-out: inhibition rate (%) at prescribed concentration, PDE4

Chain of hPDE10A (Q9Y233 290-1055 limits assumed): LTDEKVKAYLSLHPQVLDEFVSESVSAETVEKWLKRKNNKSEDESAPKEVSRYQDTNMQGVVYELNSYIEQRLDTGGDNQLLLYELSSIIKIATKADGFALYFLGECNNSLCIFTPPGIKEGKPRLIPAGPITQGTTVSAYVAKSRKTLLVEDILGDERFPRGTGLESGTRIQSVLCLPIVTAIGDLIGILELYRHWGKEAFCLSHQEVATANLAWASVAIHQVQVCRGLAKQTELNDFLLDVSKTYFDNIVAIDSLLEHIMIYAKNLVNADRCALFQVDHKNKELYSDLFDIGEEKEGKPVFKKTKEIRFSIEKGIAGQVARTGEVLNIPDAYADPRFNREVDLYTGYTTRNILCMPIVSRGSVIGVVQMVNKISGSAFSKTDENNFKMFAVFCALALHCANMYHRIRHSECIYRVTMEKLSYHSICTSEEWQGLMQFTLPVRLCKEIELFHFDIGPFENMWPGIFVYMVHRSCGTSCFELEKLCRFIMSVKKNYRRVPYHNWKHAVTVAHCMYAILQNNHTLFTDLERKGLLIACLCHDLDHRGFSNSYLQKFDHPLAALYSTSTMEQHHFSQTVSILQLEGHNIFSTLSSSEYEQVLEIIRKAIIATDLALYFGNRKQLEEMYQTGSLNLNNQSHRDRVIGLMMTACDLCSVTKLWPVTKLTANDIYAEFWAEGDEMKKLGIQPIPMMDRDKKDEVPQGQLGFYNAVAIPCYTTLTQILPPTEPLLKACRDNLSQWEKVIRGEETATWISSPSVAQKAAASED
T3 sequence (Q08499 whole entry): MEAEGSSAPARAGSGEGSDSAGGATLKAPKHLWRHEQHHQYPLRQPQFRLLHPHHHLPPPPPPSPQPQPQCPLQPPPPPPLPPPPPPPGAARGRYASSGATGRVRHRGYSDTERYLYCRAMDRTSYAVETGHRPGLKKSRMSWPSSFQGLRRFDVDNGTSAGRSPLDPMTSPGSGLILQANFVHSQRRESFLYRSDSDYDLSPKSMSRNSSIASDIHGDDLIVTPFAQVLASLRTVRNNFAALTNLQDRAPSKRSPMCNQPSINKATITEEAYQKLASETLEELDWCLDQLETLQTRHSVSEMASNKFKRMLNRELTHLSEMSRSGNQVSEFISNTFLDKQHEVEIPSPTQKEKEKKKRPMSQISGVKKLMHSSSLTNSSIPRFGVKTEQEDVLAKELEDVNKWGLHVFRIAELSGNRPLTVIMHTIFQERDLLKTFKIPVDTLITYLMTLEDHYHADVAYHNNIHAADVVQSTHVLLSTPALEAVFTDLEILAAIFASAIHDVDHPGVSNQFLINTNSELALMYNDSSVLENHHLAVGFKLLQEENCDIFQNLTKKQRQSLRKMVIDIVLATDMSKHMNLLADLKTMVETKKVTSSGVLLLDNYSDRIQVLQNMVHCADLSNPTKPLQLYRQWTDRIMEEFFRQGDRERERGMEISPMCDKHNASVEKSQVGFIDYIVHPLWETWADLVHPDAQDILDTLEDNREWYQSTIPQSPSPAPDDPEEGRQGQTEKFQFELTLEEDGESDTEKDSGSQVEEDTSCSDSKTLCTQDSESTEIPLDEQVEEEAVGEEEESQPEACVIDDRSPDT
T1 sequence (Q9NP56 whole entry): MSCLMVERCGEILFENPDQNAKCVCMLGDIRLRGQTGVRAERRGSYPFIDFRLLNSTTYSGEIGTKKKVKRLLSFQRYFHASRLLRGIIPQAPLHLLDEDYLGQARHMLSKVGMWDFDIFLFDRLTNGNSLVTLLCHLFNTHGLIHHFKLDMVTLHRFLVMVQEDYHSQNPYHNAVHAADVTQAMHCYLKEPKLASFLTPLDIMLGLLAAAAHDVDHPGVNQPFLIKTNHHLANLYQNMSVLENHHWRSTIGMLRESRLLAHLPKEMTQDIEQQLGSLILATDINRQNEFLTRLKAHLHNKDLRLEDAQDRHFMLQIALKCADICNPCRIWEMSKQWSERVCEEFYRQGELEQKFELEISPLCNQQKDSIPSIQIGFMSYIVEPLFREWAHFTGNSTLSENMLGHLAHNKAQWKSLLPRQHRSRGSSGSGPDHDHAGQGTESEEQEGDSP
T2 sequence (O95263 whole entry): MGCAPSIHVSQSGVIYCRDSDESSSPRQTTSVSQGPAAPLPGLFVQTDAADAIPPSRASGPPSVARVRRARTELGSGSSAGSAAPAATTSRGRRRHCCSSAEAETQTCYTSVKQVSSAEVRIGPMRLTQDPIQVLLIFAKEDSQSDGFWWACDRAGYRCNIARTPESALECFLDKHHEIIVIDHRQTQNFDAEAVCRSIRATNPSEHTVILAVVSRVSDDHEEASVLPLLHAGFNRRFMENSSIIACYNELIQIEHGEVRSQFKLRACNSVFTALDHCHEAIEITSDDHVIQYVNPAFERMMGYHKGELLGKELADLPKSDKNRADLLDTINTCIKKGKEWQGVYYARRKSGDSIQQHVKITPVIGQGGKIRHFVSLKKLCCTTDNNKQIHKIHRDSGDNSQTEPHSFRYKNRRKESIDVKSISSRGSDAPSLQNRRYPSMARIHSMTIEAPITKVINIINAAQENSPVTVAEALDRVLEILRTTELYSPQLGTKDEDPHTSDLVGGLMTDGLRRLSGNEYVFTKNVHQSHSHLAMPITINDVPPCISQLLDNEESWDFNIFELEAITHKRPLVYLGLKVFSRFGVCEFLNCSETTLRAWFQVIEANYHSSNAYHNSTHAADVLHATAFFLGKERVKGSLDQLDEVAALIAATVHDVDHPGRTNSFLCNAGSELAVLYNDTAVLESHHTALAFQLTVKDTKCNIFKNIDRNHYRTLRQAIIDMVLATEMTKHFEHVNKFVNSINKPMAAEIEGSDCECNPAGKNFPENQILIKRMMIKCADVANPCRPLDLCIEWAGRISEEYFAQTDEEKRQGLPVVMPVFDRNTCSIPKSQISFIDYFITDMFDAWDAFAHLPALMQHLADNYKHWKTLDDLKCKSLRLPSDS

IC50 (Human PDE7B (hPDE7B)) | IC50 (hPDE8B) | IC50 (hPDE4D) | IC50 (hPDE10A) | Compound | further results
0.04 µM | 3.35 µM | 7.86 µM |  | CC1CC(C)CN(c2nnc3c(N)ncc(C#N)n23)C1 (racemic) [Example 54, 8-amino-3-(3,5-dimethylpiperidin-1-yl) [1,2,4]triazolo[4,3-a]pyrazine-5-carbonitrile] | inhibition at 100 µM (hPDE10A): 30%
0.06 µM | 18.4 µM | 5.8 µM | 16.3 µM | CC1CCN(c2nnc3c(N)nccn23)C(C)C1 (racemic) [Example 61, 3-(2,4-dimethylpiperidin-1-yl) [1,2,4]triazolo[4,3-a]pyrazin-8-amine] | 
0.04 µM | 21.3 µM | 4.3 µM | 7.1 µM | CC1CCN(c2nnc3c(N)nccn23)C(C)C1 (racemic) [Example 62, 3-(2,4-dimethylpiperidin-1-yl) [1,2,4]triazolo[4,3-a]pyrazin-8-amine] | 
0.04 µM | 2.49 µM | 6.21 µM | 17.9 µM | Nc1ncnn2c(C3CCCC(F)(F)C3)nnc12 (racemic) [Example 82, 3-(3,3-difluorocyclohexyl) [1,2,4]triazolo[3,4-f][1,2,4]triazin-8-amine] | 
< 0.01 µM | 1.33 µM |  | 3.04 µM | CC1CCC(C(F)(F)F)CC1c1nnc2c(N)ncnn12 (racemic) [Example 83, 3-[2-methyl-5-(trifluoromethyl)cyclohexyl][1,2,4]triazolo[3,4-f][1,2,4]triazin-8-amine] | inhibition at 1 µM (hPDE4D; at 1 μmol/L, read-out: inhibition rate (%) at prescribed concentration, PDE4): 53%
< 0.01 µM | 9 µM | 5.9 µM | 21.8 µM | Nc1nccn2c([C@H]3C[C@@H](C(F)(F)F)CCC3(F)F)nnc12 (racemic) [Example 172, 3-[cis-2,2-difluoro-5-(trifluoromethyl)cyclohexyl][1,2,4]triazolo[4,3-a]pyrazin-8-amine] | 
0.05 µM | 9.9 µM | 6.4 µM | 8.7 µM | CC1CCCN(c2nnc3c(N)nccn23)C1C (single isomer, unassigned) [Example 57, 3-(2,3-dimethylpiperidin-1-yl) [1,2,4]triazolo[4,3-a]pyrazin-8-amine] | 
0.025 µM |  |  | 1.8 µM | CC1CCCCC1c1nnc2c(N)ncnn12 (single isomer, unassigned) [Example 70, 3-(cis-2-methylcyclohexyl) [1,2,4]triazolo[3,4-f][1,2,4]triazin-8-amine] | inhibition rate (%) at prescribed concentration, PDE8 (hPDE8B): 64% at 1; inhibition rate (%) at prescribed concentration, PDE4 (hPDE4D; at 1 μmol/L): 67% at 1
0.01 µM |  | 1.49 µM | 8.91 µM | CC1CCCC(c2nnc3c(N)ncnn23)C1 (single isomer, unassigned) [Example 72, 3-(cis-3-methylcyclohexyl) [1,2,4]triazolo[3,4-f][1,2,4]triazin-8-amine] | inhibition rate (%) at prescribed concentration, PDE8 (hPDE8B): 62% at 1
0.053 µM | 4.33 µM | 27.1 µM |  | Nc1ncnn2c(C3CCCC(C(F)(F)F)C3)nnc12 (single isomer, unassigned) [Example 75, 3-[cis-3-(trifluoromethyl)cyclohexyl][1,2,4]triazolo[3,4-f][1,2,4]triazin-8-amine] | inhibition at 100 µM (hPDE10A): 44%
< 0.01 µM |  | 11.9 µM | 12.3 µM | Nc1ncnc2c1nnn2C1CCCCC1(F)F (single isomer, unassigned) [Example 115, 3-(2,2-difluorocyclohexyl)-3H-[1,2,3]triazolo[4,5-d]pyrimidin-7-amine] | inhibition at 1 µM (hPDE8B): 52%
0.003 µM | 6.8 µM | 6 µM | 1.3 µM | CC1CCC(C(F)(F)F)CC1c1nnc2c(N)nccn12 (single isomer, unassigned) [Example 174, 3-[2-methyl-5-(trifluoromethyl)cyclohexyl][1,2,4]triazolo[4,3-a]pyrazin-8-amine] | 
< 0.01 µM | 19.5 µM | 14.9 µM | 1.9 µM | CC1CCC(F)(F)CC1c1nnc2c(N)nccn12 (single isomer, unassigned) [Example 175, 3-(cis-5,5-difluoro-2-methylcyclohexyl) [1,2,4]triazolo[4,3-a]pyrazin-8-amine] | 
0.035 µM | 13.7 µM | 21 µM | 13.3 µM | CC1(C)CC(c2nnc3c(N)nccn23)CC(F)(F)C1 (single isomer, unassigned) [Example 177, 3-(3,3-difluoro-5,5-dimethylcyclohexyl) [1,2,4]triazolo[4,3-a]pyrazin-8-amine] | 
0.16 µM | 8.6 µM |  |  | Nc1ncnc2c1nnn2[C@H]1CCCC(F)(F)C1 [Example 89] | inhibition at 10 µM (hPDE10A): 17%

The next lines start with the compound.

Compound | IC50 (Human PDE7B (hPDE7B)) | IC50 (hPDE8B) | IC50 (hPDE4D) | IC50 (hPDE10A) | further results
C[C@H]1C[C@H](n2nnc3c(N)ncnc32)CC(C)(C)C1 (racemic) [Example 109, 3-(trans-3,3,5-trimethylcyclohexyl)-3H-[1,2,3]triazolo[4,5-d]pyrimidin-7-amine] | 0.04 µM | 12.9 µM | 99.2 µM |  | inhibition at 100 µM (hPDE10A): 24%
CC1(C)CCCC(n2nnc3c(N)ncnc32)C1 (racemic) [Example 128, 3-(3,3-dimethylcyclohexyl)-3H-[1,2,3]triazolo[4,5-d]pyrimidin-7-amine] | 0.02 µM | 1.31 µM | 4.53 µM |  | inhibition at 10 µM (hPDE10A): 43%
CC1CCCCC1n1nnc2c(N)ncnc21 (single isomer, unassigned) [Example 192, 3-(trans-2-methylcyclohexyl)-3H-[1,2,3]triazolo[4,5-d]pyrimidin-7-amine] | 0.04 µM | 4.18 µM |  | 8.25 µM | inhibition at 10 µM (hPDE4D; [1]): 45%
Nc1ncnc2c1nnn2C1CCCCC1F (single isomer, unassigned) [Example 194, 3-(cis-2-fluorocyclohexyl)-3H-[1,2,3]triazolo[4,5-d]pyrimidin-7-amine] | 0.04 µM |  | 6.98 µM | 12.2 µM | inhibition at 1 µM (hPDE8B): 79%
Nc1ncnc2c1nnn2C1CCCCC1F (single isomer, unassigned) [Example 195, 3-(cis-2-fluorocyclohexyl)-3H-[1,2,3]triazolo[4,5-d]pyrimidin-7-amine] | 0.05 µM | 1.41 µM | 5.7 µM | 30.6 µM | 
CSc1nc(N)c2nnn(C3CCCCC3)c2n1 [Example 5, 3-cyclohexyl-5-(methylsulfanyl)-3H-[1,2,3]triazolo[4,5-d]pyrimidin-7-amine] | 0.03 µM |  | 0.19 µM | 2.76 µM | 
COc1nc(N)c2nnn(C3CCCCC3)c2n1 [Example 92, 3-cyclohexyl-5-methoxy-3H-[1,2,3]triazolo[4,5-d]pyrimidin-7-amine] | < 0.01 µM |  | 0.64 µM | 2.97 µM | 
Nc1ncnc2c1ncn2C1CCCCC1 [Example 182] | 0.41 µM |  | 3.42 µM | 0.47 µM | 
Nc1ncnc2c1c(C(F)(F)F)nn2C1CCCCC1 [Example 185] | 0.56 µM |  | 1.84 µM | 0.36 µM | 
Cn1nc(C2CCCCC2)c2ncnc(N)c21 [Example 187, 3-cyclohexyl-1-methyl-1H-pyrazolo[4,3-d]pyrimidin-7-amine] | 0.58 µM |  |  | 2.72 µM | inhibition at 10 µM (hPDE4D; [1]): 38%
Nc1ncnc2c(C3CCCCC3)onc12 [Example 253, 3-(cyclohexyl)-isoxazolo[4,3-d]pyrimidin-8-amine] | 0.61 µM | 3.81 µM | 7.38 µM |  | 
